Earlier results, collected in patent US20110136769A1, “METHOD OF TREATING MEN WITH TE[…] 5ALPHA-REDUCTASE INHIBITOR” (Merck Sharp & Dohme Corp., priority 2007, published 2011).

Columns and labels:
5α-reductase type 2 = molecular target: T1, 5α-reductase type 2 (Homo sapiens, UniProt P31213); details: background statement
T1 construct: Samples of human tissue were pulverized using a freezer mill and homogenized; from tissue; host or cells: human prostate (crude nuclear pellet of homogenate)
T1 sequence (P31213 1-254): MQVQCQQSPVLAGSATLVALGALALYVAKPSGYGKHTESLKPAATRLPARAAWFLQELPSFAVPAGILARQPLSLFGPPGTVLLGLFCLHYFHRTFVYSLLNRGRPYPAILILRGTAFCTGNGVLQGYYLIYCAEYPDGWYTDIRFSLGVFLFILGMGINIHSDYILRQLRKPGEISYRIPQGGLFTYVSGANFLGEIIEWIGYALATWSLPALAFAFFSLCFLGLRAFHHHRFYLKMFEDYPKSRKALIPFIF

5α-reductase type 1 = molecular target: T2, 5α-reductase type 1 (Homo sapiens, UniProt P18405); details: background statement
T2 construct: Samples of human tissue were pulverized using a freezer mill and homogenized; from tissue; host or cells: human scalp (crude nuclear pellet of homogenate)
T2 sequence (P18405 1-259): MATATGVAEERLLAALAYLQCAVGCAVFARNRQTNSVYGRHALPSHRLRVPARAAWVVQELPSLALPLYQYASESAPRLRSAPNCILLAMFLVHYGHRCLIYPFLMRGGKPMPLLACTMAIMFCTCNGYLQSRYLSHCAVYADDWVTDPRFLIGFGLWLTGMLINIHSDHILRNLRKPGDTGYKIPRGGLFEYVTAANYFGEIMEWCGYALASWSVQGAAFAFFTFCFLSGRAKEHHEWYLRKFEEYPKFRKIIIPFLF

Row | Compound | inhibition of the human type 2 enzyme (5α-reductase type 2) | inhibition of 5α-reductase type 1 (5α-reductase type 1)
1 | C[C@]12C=CC(=O)N[C@@H]1CC[C@@H]1[C@@H]2CC[C@]2(C)[C@@H](C(=O)Nc3cc(C(F)(F)F)ccc3C(F)(F)F)CC[C@@H]12 [dutasteride] | potent inhibitors | potent inhibitors
2 | CC(C)(C)NC(=O)[C@H]1CCC2C3CCC4NC(=O)C=C[C@]4(C)C3CC[C@@]21C (stereo partly drawn) [Finasteride, 17β-(N-tert-butylcarbamoyl)-3-oxo-4-aza-5α-androst-1-en-3-one] | potent inhibitor | 
